Test results published in patent US7148232B2, “Oxazolo, thiazolo and selenazolo [4,5-c]-quinolin-4-amines and analogs thereof” (3M Innovative Properties Company, priority 1998, dated 2006).

Key:
interferon (α) [1] = assay: Cytokine induction in human cells: interferon (α) secreted by PBMCs (ELISA or bioassay); assay type: cell-based; conditions: 18 to 24 hours
Procedure: (§1) An in vitro human blood cell system was used to assess cytokine induction by compounds of the invention.
(§2) Whole blood is collected by venipuncture into EDTA vacutainer tubes from healthy human donors. […] The PBMC suspension is added to 48 well flat bottom sterile tissue culture plates (Costar, Cambridge, Mass. or Becton Dickinson Labware, Lincoln Park, N.J.) containing an equal volume of RPMI complete media containing test compound.
(§3) The compounds are solubilized in dimethyl sulfoxide (DMSO). The DMSO concentration should not exceed a final concentration of 1% for addition to the culture wells.
(§4) The solution of test compound is added at 60 μM to the first well containing RPMI complete and serial 3 fold dilutions are made. The PBMC suspension is then added to the wells in an equal volume, bringing the test compound concentrations to the desired range (0.12 to 30 μM). The final concentration of PBMC suspension is 1.5–2×10^6 cells/mL. The plates are covered with sterile plastic lids, mixed gently and then incubated for 18 to 24 hours at 37° C. in a 5% carbon dioxide atmosphere.
(§5) Following incubation the plates are centrifuged for 5–10 minutes at 1000 rpm (˜200×g) at 4° C. The cell culture supernatant is removed with a sterile polypropylene pipet and transferred to sterile polypropylene tubes. Samples are maintained at −30 to −70° C. until analysis. The samples are analyzed for interferon (α) by either ELISA or bioassay and for tumor necrosis factor (α) by ELISA
Interferon is determined by bioassay using A549 human lung carcinoma cells challenged with encephalomyocarditis. […] Briefly stated the method is as follows: A549 cells are incubated with dilutions of samples or a standard interferon at 37° C. for 24 hours. The incubated cells are then infected with an inoculum of encephalomyocarditis virus. The infected cells are incubated for an additional 24 hours at 37° C. before evaluating for viral cytopathic effect. The viral cytopathic effect is quantified by staining with crystal violet followed by visual scoring of the plates. Results are expressed as alpha reference units/mL based on the value obtained for NIH Human Leukocyte IFN standard.
Interferon (α) concentration is determined by ELISA using a Human Multi-Species kit from PBL Biomedical Laboratories, New Brunswick, N.J. according to the manufacturer's instructions.

[2] = tested on: tumor necrosis factor (α); assay: Cytokine induction in human cells: tumor necrosis factor (α) secreted by PBMCs (ELISA); assay type: cell-based; conditions: 18 to 24 hours
Procedure: as §1, §2, §3, §4, §5
Tumor necrosis factor (α) (TNF) concentration is determined using ELISA kits available from Genzyme, Cambridge, Mass.; R&D Systems, Minneapolis, Minn.; or Pharmingen, San Diego, Calif. according to the manufacturer's instructions.

interferon (α) [3] = assay: Interferon (α) induction in human cells (in vitro human blood cell system, interferon by bioassay); assay type: cell-based; conditions: human PBM's, 48 hours

## Nc1nc2ccccc2c2sc(CCc3ccccc3)nc12 [Example 24, 2-(2-Phenyl-1-ethyl)thiazolo[4,5-c]quinolin-4-amine]
Interferon (α) [1]; Dose Concentration 0.12 μM
  Interferon (α) Induction: −
Interferon (α) [1]; Dose Concentration 0.37 μM
  Interferon (α) Induction: −
Interferon (α) [1]; Dose Concentration 1.11 μM
  Interferon (α) Induction: −
Interferon (α) [1]; Dose Concentration 3.33 μM
  Interferon (α) Induction: −
Interferon (α) [1]; Dose Concentration 10 μM
  Interferon (α) Induction: −
Interferon (α) [1]; Dose Concentration 30 μM
  Interferon (α) Induction: −
[2]; Dose Concentration 0.12 μM
  Tumor Necrosis Factor Induction: −
[2]; Dose Concentration 0.37 μM
  Tumor Necrosis Factor Induction: −
[2]; Dose Concentration 1.11 μM
  Tumor Necrosis Factor Induction: −
[2]; Dose Concentration 3.33 μM
  Tumor Necrosis Factor Induction: −
[2]; Dose Concentration 10 μM
  Tumor Necrosis Factor Induction: −
[2]; Dose Concentration 30 μM
  Tumor Necrosis Factor Induction: +
Interferon (α) [3]; Dose Concentration 0.01 μg/mL
  Interferon (α) Induction in Human Cells: −
Interferon (α) [3]; Dose Concentration 0.05 μg/mL
  Interferon (α) Induction in Human Cells: −
Interferon (α) [3]; Dose Concentration 0.10 μg/mL
  Interferon (α) Induction in Human Cells: −
Interferon (α) [3]; Dose Concentration 0.50 μg/mL
  Interferon (α) Induction in Human Cells: −
Interferon (α) [3]; Dose Concentration 1.0 μg/mL
  Interferon (α) Induction in Human Cells: −
Interferon (α) [3]; Dose Concentration 5.0 μg/mL
  Interferon (α) Induction in Human Cells: −
Interferon (α) [3]; Dose Concentration 10.0 μg/mL
  Interferon (α) Induction in Human Cells: +
Interferon (α) [3]; Dose Concentration 25.0 μg/mL
  Interferon (α) Induction in Human Cells: +
Interferon (α) [3]; Dose Concentration 50.0 μg/mL
  Interferon (α) Induction in Human Cells: +
other
  melting point: 158 to 159 °C

## CCCc1nc2c(N)nc3ccc(N)cc3c2s1 [Example 42, 2-Propylthiazolo[4,5-c]quinolin-4,8-diamine]
Interferon (α) [1]; Dose Concentration 0.12 μM
  Interferon (α) Induction: −
Interferon (α) [1]; Dose Concentration 0.37 μM
  Interferon (α) Induction: −
Interferon (α) [1]; Dose Concentration 1.11 μM
  Interferon (α) Induction: −
Interferon (α) [1]; Dose Concentration 3.33 μM
  Interferon (α) Induction: −
Interferon (α) [1]; Dose Concentration 10 μM
  Interferon (α) Induction: +
Interferon (α) [1]; Dose Concentration 30 μM
  Interferon (α) Induction: −
[2]; Dose Concentration 0.12 μM
  Tumor Necrosis Factor Induction: −
[2]; Dose Concentration 0.37 μM
  Tumor Necrosis Factor Induction: −
[2]; Dose Concentration 1.11 μM
  Tumor Necrosis Factor Induction: +
[2]; Dose Concentration 3.33 μM
  Tumor Necrosis Factor Induction: +
[2]; Dose Concentration 10 μM
  Tumor Necrosis Factor Induction: +
[2]; Dose Concentration 30 μM
  Tumor Necrosis Factor Induction: +
Interferon (α) [3]; Dose Concentration 0.01 μg/mL
  Interferon (α) Induction in Human Cells: −
Interferon (α) [3]; Dose Concentration 0.05 μg/mL
  Interferon (α) Induction in Human Cells: −
Interferon (α) [3]; Dose Concentration 0.10 μg/mL
  Interferon (α) Induction in Human Cells: −
Interferon (α) [3]; Dose Concentration 0.50 μg/mL
  Interferon (α) Induction in Human Cells: +
Interferon (α) [3]; Dose Concentration 1.0 μg/mL
  Interferon (α) Induction in Human Cells: +
Interferon (α) [3]; Dose Concentration 5.0 μg/mL
  Interferon (α) Induction in Human Cells: +
other
  melting point: 190 to 192 °C

## Nc1nc2ccccc2c2sc(N3CCOCC3)nc12 [Example 53, 2-(4-Morpholino)thiazolo[4,5-c]quinolin-4-amine]
Interferon (α) [1]; Dose Concentration 0.12 μM
  Interferon (α) Induction: −
Interferon (α) [1]; Dose Concentration 0.37 μM
  Interferon (α) Induction: −
Interferon (α) [1]; Dose Concentration 1.11 μM
  Interferon (α) Induction: −
Interferon (α) [1]; Dose Concentration 3.33 μM
  Interferon (α) Induction: −
Interferon (α) [1]; Dose Concentration 10 μM
  Interferon (α) Induction: −
Interferon (α) [1]; Dose Concentration 30 μM
  Interferon (α) Induction: −
[2]; Dose Concentration 0.12 μM
  Tumor Necrosis Factor Induction: −
[2]; Dose Concentration 0.37 μM
  Tumor Necrosis Factor Induction: −
[2]; Dose Concentration 1.11 μM
  Tumor Necrosis Factor Induction: −
[2]; Dose Concentration 3.33 μM
  Tumor Necrosis Factor Induction: −
[2]; Dose Concentration 10 μM
  Tumor Necrosis Factor Induction: −
[2]; Dose Concentration 30 μM
  Tumor Necrosis Factor Induction: −
Interferon (α) [3]; Dose Concentration 0.01 μg/mL
  Interferon (α) Induction in Human Cells: −
Interferon (α) [3]; Dose Concentration 0.05 μg/mL
  Interferon (α) Induction in Human Cells: −
Interferon (α) [3]; Dose Concentration 0.10 μg/mL
  Interferon (α) Induction in Human Cells: −
Interferon (α) [3]; Dose Concentration 0.50 μg/mL
  Interferon (α) Induction in Human Cells: −
Interferon (α) [3]; Dose Concentration 1.0 μg/mL
  Interferon (α) Induction in Human Cells: −
Interferon (α) [3]; Dose Concentration 5.0 μg/mL
  Interferon (α) Induction in Human Cells: −
Interferon (α) [3]; Dose Concentration 10.0 μg/mL
  Interferon (α) Induction in Human Cells: −
Interferon (α) [3]; Dose Concentration 25.0 μg/mL
  Interferon (α) Induction in Human Cells: +
Interferon (α) [3]; Dose Concentration 50.0 μg/mL
  Interferon (α) Induction in Human Cells: +
other
  melting point: 225 to 227 °C
